Tested on: 496974-208-R-J2-PDC complex spheroids, growth % test/control
Assay: Anticancer human tumor 496974-208-R-J2-PDC patient-derived pancreatic carcinoma cell line growth inhibition [CLK]
Conditions: for IC50: curve of first compound; for viability, T/C: stronger effect = lower value
Procedure, shortened: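 Multi-cell-type spheroids combined patient-derived tumor cells with HUVEC endothelial cells and human mesenchymal stem cells. Paired agents were dosed in half-log steps down from about clinical Cmax, or from 10 microM where Cmax was unknown.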

[1] = second compound 0.0316 µM, first compound 0.0316 µM
[2] = second compound 0.0316 µM, first compound 0.1 µM
[3] = second compound 0.0316 µM, first compound 0.316 µM
[4] = second compound 0.0316 µM, first compound 1 µM
[5] = second compound 0.0316 µM, first compound 3.16 µM
[6] = second compound 0.0316 µM, first compound 10 µM
[7] = second compound 0.1 µM, first compound 0.0316 µM
[8] = second compound 0.1 µM, first compound 0.1 µM
[9] = second compound 0.1 µM, first compound 0.316 µM
[10] = second compound 0.1 µM, first compound 1 µM
[11] = second compound 0.1 µM, first compound 3.16 µM
[12] = second compound 0.1 µM, first compound 10 µM
[13] = second compound 0.316 µM, first compound 0.0316 µM
[14] = second compound 0.316 µM, first compound 0.1 µM
[15] = second compound 0.316 µM, first compound 0.316 µM
[16] = second compound 0.316 µM, first compound 1 µM
[17] = second compound 0.316 µM, first compound 3.16 µM
[18] = second compound 0.316 µM, first compound 10 µM
[19] = second compound 1 µM, first compound 0.0316 µM
[20] = second compound 1 µM, first compound 0.1 µM
[21] = second compound 1 µM, first compound 0.316 µM
[22] = second compound 1 µM, first compound 1 µM
[23] = second compound 1 µM, first compound 3.16 µM
[24] = second compound 1 µM, first compound 10 µM
[25] = second compound 3.16 µM, first compound 0.0316 µM
[26] = second compound 3.16 µM, first compound 0.1 µM
[27] = second compound 3.16 µM, first compound 0.316 µM
[28] = second compound 3.16 µM, first compound 1 µM
[29] = second compound 3.16 µM, first compound 3.16 µM
[30] = second compound 3.16 µM, first compound 10 µM
[31] = second compound 10 µM, first compound 0.0316 µM
[32] = second compound 10 µM, first compound 0.1 µM
[33] = second compound 10 µM, first compound 0.316 µM
[34] = second compound 10 µM, first compound 1 µM
[35] = second compound 10 µM, first compound 3.16 µM
[36] = second compound 10 µM, first compound 10 µM
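Further: spheroids exposed to the drugs for 7 days before readout.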
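Wherever viability, T/C is given: 100% = DMSO vehicle control wells.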

Question: What does the source list for `Nc1ccn(C2OC(CO)C(O)C2(F)F)c(=O)n1` (centres undefined) + CNC(=O)c1ccc(Nc2nc(OC3CCCC3)c3c(-c4ccc5nc(C)oc5c4)c[nH]c3n2)c(OC)c1?
Answer: IC50 (second compound 0.0316 µM): > 10 µM; IC50 (second compound 0.1 µM): > 10 µM; IC50 (second compound 0.316 µM): > 10 µM; IC50 (second compound 1 µM): 2.76 µM; IC50 (second compound 3.16 µM): 0.279 µM; IC50 (second compound 10 µM): 0.0606 µM; viability, T/C [1]: 94.5%; viability, T/C [2]: 80%; viability, T/C [3]: 67%; viability, T/C [4]: 65.4%; viability, T/C [5]: 68.5%; viability, T/C [6]: 58.5%; viability, T/C [7]: 75.3%; viability, T/C [8]: 80.7%; viability, T/C [9]: 64.6%; viability, T/C [10]: 62.9%; viability, T/C [11]: 60.7%; viability, T/C [12]: 54%; viability, T/C [13]: 63.3%; viability, T/C [14]: 74.2%; viability, T/C [15]: 69.9%; viability, T/C [16]: 54.8%; viability, T/C [17]: 59.6%; viability, T/C [18]: 65.2%; viability, T/C [19]: 66.4%; viability, T/C [20]: 62.5%; viability, T/C [21]: 66.6%; viability, T/C [22]: 53.5%; viability, T/C [23]: 44.4%; viability, T/C [24]: 54.7%; viability, T/C [25]: 63.1%; viability, T/C [26]: 59.8%; viability, T/C [27]: 49.2%; viability, T/C [28]: 41%; viability, T/C [29]: 42.1%; viability, T/C [30]: 43.7%; viability, T/C [31]: 52.8%; viability, T/C [32]: 49%; viability, T/C [33]: 44.4%; viability, T/C [34]: 39.6%; viability, T/C [35]: 40.6%; viability, T/C [36]: 43.1%

Question: For `O=c1[nH]cc(F)c(=O)[nH]1` + CNC(=O)c1ccc(Nc2nc(OC3CCCC3)c3c(-c4ccc5nc(C)oc5c4)c[nH]c3n2)c(OC)c1, which IC50 (second compound 0.0316 µM) is on record?
Answer: The IC50 was over 10 µM.

Question: What about the IC50 (second compound 0.1 µM) of the same compound?
Answer: Its IC50 is over 10 µM.

Question: What about the IC50 (second compound 0.316 µM) of the same compound?
Answer: Its IC50 is over 10 µM.

Question: What about the IC50 (second compound 1 µM) of the same compound?
Answer: The IC50 was 6.38 µM.

Question: What about the IC50 (second compound 3.16 µM) of the same compound?
Answer: The IC50 was over 10 µM.

Question: What about the IC50 (second compound 10 µM) of the same compound?
Answer: The IC50 was 1.21 µM.

Question: And the viability, T/C [1]?
Answer: Its viability, T/C is 102%.

Question: And the viability, T/C [2]?
Answer: Its viability, T/C is 88.6%.

Question: And the viability, T/C [3]?
Answer: Its viability, T/C is 92.7%.

Question: And the viability, T/C [4]?
Answer: The viability, T/C was 85.3%.

Question: What about the viability, T/C [5] of the same compound?
Answer: The viability, T/C was 72.2%.

Question: And the viability, T/C [6]?
Answer: The viability, T/C was 61.8%.

Question: What about the viability, T/C [7] of the same compound?
Answer: The viability, T/C was 74.8%.

Question: What about the viability, T/C [8] of the same compound?
Answer: Its viability, T/C is 83.1%.

Question: And the viability, T/C [9]?
Answer: Its viability, T/C is 76.2%.

Question: And the viability, T/C [10]?
Answer: Its viability, T/C is 81.8%.

Question: And the viability, T/C [11]?
Answer: Its viability, T/C is 70.7%.

Question: What about the viability, T/C [12] of the same compound?
Answer: Its viability, T/C is 58.7%.

Question: And the viability, T/C [13]?
Answer: Its viability, T/C is 78.5%.

Question: And the viability, T/C [14]?
Answer: The viability, T/C was 76.4%.

Question: And the viability, T/C [15]?
Answer: The viability, T/C was 68.2%.

Question: What about the viability, T/C [16] of the same compound?
Answer: Its viability, T/C is 70.4%.

Question: And the viability, T/C [17]?
Answer: Its viability, T/C is 67.1%.

Question: What about the viability, T/C [18] of the same compound?
Answer: The viability, T/C was 54.6%.

Question: And the viability, T/C [19]?
Answer: Its viability, T/C is 73.7%.

Question: And the viability, T/C [20]?
Answer: The viability, T/C was 67.3%.

Question: And the viability, T/C [21]?
Answer: Its viability, T/C is 71.5%.

Question: What about the viability, T/C [22] of the same compound?
Answer: Its viability, T/C is 69%.

Question: And the viability, T/C [23]?
Answer: Its viability, T/C is 56.9%.

Question: What about the viability, T/C [24] of the same compound?
Answer: The viability, T/C was 45.6%.

Question: And the viability, T/C [25]?
Answer: Its viability, T/C is 63.5%.

Question: What about the viability, T/C [26] of the same compound?
Answer: The viability, T/C was 58.6%.

Question: What about the viability, T/C [27] of the same compound?
Answer: Its viability, T/C is 64%.

Question: What about the viability, T/C [28] of the same compound?
Answer: Its viability, T/C is 54%.

Question: And the viability, T/C [29]?
Answer: Its viability, T/C is 55.2%.

Question: What about the viability, T/C [30] of the same compound?
Answer: Its viability, T/C is 48.5%.

Question: What about the viability, T/C [31] of the same compound?
Answer: The viability, T/C was 51.8%.

Question: And the viability, T/C [32]?
Answer: The viability, T/C was 58.5%.

Question: What about the viability, T/C [33] of the same compound?
Answer: The viability, T/C was 54.2%.

Question: What about the viability, T/C [34] of the same compound?
Answer: The viability, T/C was 51.8%.

Question: What about the viability, T/C [35] of the same compound?
Answer: The viability, T/C was 41.3%.

Question: What about the viability, T/C [36] of the same compound?
Answer: Its viability, T/C is 39%.
